Experimental data as given in paper PMC7329984, “A Broad Temperature Active Lipase Purified From a Psychrotrophic Bacterium of Sikkim Himalaya With Potential Application in Detergent Formulation” (Frontiers in Bioengineering and Biotechnology, 2020).

Experiments:
ERMR1:04 lipase = test system: T1, ERMR1:04 lipase; assay: p-nitrophenol release at […] nm; Lineweaver-Burk plot; type: biochemical, Chryseobacterium polytrichastri; settings: 50 mM Tris pH 8, 37°C; 0.025-0.3 mM substrate
T1 construct: gene alpha/beta hydrolase; native extracellular enzyme purified from culture supernatant (ammonium sulfate, Sephadex G-100, Octyl-Sepharose); gene not firmly identified: MALDI top hit alpha/beta hydrolase of Solibacillus sp

[1] = target: extracellular lipase of Chryseobacterium polytrichastri ERMR1:04 (Chryseobacterium polytrichastri ERMR1:04 (endogenous, secreted)); assay: native gel or EMSA; 10% native PAGE of the Octyl-Sepharose purified lipase (250 kDa band) compared with 12% SDS-PAGE (39.8 kDa band)

Row | Molecule | Km (ERMR1:04 lipase) [µM] | stoichiometry N [1]
1 | CCCCCCCCCCCCCCCC(=O)Oc1ccc([N+](=O)[O-])cc1 [pNPP, p-nitrophenyl palmitate] | 104 | –
2 | extracellular lipase of Chryseobacterium polytrichastri ERMR1:04 (enzyme) | – | 6
